We go through three molecules from patent US20190183851A1, “USE OF 3,4,7-TRIHYDROXYISOFLAVONE OR 3-METHOXYDAIDZEIN IN PREPARATION OF DRUG FOR INHIBITING PLATELET AGGREGATION AND THROMBOSIS” (Kunming Institute of Zoology, Chinese Academy of Sciences, priority 2017, published 2019).

Series [1] concerns mouse-tail thrombus. Briefly: carrageenan-induced mouse-tail thrombosis model. The format is in vivo, Kunming mice. The conditions noted are these: 24 h; for rate of thrombus inhibition versus dose: gavage 33, 100 and 300 μmol/kg; for rate of thrombus inhibition versus dose / inhibition of thrombosis in mouse tail versus negative control: carrageenan 40 mg/kg i.p. As for the experimental part: This embodiment relates to a carrageenan-induced mouse-tail thrombosis model.
The experiment animals, male Kunming mice, each with a body weight of 20-25 g, were randomly divided into groups (n=10) after fed for one week. The first group was a DMSO control group, the sample groups were gavaged with 3,4,7-trihydroxyisoflavone and 3-methoxydaidzein at concentrations respectively of 33, 100 and 300 μmol/kg, and the positive control was gavaged with 300 μmol/kg clopidogrel. 30 min after intragastric administration, carrageenan (type I, Sigma) was injected intraperitoneally into the mice at a dose of 40 mg/kg. Since the rate of thrombosis was >90% at a low temperature, the feeding temperature was 18° C. After 24 h, the mean length of thrombosis was determined according to the color change of the tail skin.

In series [2] the test system is tail bleeding time of the mouse. Briefly: evaluation of bleeding risk, tail bleeding time. The format is in vivo, C57BL/6 mice. Conditions: 80 mg/kg by gavage; 3, 6 and 12 hours after administration; mice. As for the experimental part: This embodiment relates to an evaluation of bleeding risk of 3,4,7-trihydroxyisoflavone and 3-methoxydaidzein.
Each group included 8 male C57BL/6 (18-20 g). The test sample group and the control group were administered by gavage. After 3, 6 and 12 hours of administration, the mice were placed into a self-made special holder to make the tails pass through a trimmed 1 mL pipette tip. 5 mm of the tail tip was cut off with a sterilized razor blade, and the mouse tail was immediately immersed into normal saline at 37° C. The bleeding time of the tail was observed by using the bloodstream stop time as an indicator.

Series [3] has as its system Healthy human platelets. In words: ADP-induced platelet aggregation in PRP. Type of series: cell-based. Conditions: 70 μmol/L ADP; for concentration dependence of inhibition of ADP-induced platelet aggregation: FIGS. 3 and 4. Here is the method: Healthy human platelets were diluted with plasma to 2.5×10^8 platelets per mL. 300 μL of plasma-rich platelets was taken, added into different concentrations of samples at 37° C. and maintained at this temperature for 5 min, then added with 70 μmol/L ADP to induce aggregation, and an aggregation curve within 5 min was plotted on a platelet aggregation instrument. Platelet aggregation without sample treatment was used as a control.
300 μM of 3-methoxydaidzein could inhibit about 50% of platelet aggregation, while 100 μM of 3,4,7-trihydroxyisoflavone could inhibit about 50% of platelet aggregation.

Series [4] has as its system washed human platelets. Briefly: collagen-induced platelet aggregation in washed human platelets. Type of series: cell-based. Conditions: 0.6 μg/mL collagen. Here is the method: The collagen-induced platelet aggregation was detected by using washed human platelets. […] The platelet washing method was as follows: a. 1.4 mL platelets (concentrated platelet plasma) were poured into each 1.5 mL EP tube, and centrifuged at 400 g under room temperature for 5 min, and the supernatant was discarded; b. the platelets in each tube were resuspended with 0.5 mL of a tyrode A solution, and two tubes of resuspended platelets were combined into a new 1.5 mL EP tube, mixed well and centrifuged at 400 g under room temperature for 5 min; c. the platelets in each tube were resuspended with 1 mL of the tyrode A solution, transferred into a new EP tube, and centrifuged at room temperature at 400 g under room temperature for 5 min; d. the platelets in each tube were resuspended with 1 mL of a tyrode B solution, and the platelets were adjusted to an appropriate concentration with the tyrode B solution.

One may read the inhibition as the relative decrease from the control value, in per cent. A lower inhibition goes with a response near the control.

With `O=c1c(-c2ccc(O)c(O)c2)coc2cc(O)ccc12` [3,4,7-trihydroxyisoflavone], the “average thrombus length compared with clopidogrel” value in series [1] (gavage 300 μmol/kg, compared with 300 μmol/kg clopidogrel) was “shorter than that of the group gavaged with 300 μmol/kg of clopidogrel”. The “rate of thrombus inhibition versus dose” value in series [1] was “increased along with the increase of concentration”. For the same molecule, the “inhibition of thrombosis in mouse tail versus negative control” value in series [1] (oral 100 μmol/kg) is “significantly inhibit”. In series [2], the “tail bleeding activity versus non-administrated group (FIG. 8)” value is listed as “did not show any significant bleeding activity”. The “concentration dependence of inhibition of ADP-induced platelet aggregation” value in series [3] is on record as “gradient-dependent manner”. The molecule also showed an inhibition at 100 µM in series [3] (Homo sapiens, Platelet, 100 μM compound) of approximately 50%. Moreover, the “concentration dependence of inhibition of collagen-induced platelet aggregation” value in series [4] (FIGS. 1 and 2) is recorded as “gradient-dependent manner”. For the same molecule, in series [4] (20 μM compound, washed human platelets), the “inhibition of platelet aggregation” value is reported as “completely inhibit”.
For the molecule `COc1cc(-c2coc3cc(O)ccc3c2=O)ccc1O` [3-methoxydaidzein], in series [1], the “rate of thrombus inhibition versus dose” value is reported as “increased along with the increase of concentration”. In addition, in series [1] (oral 300 μmol/kg), the “inhibition of thrombosis in mouse tail versus negative control” value is listed as “significantly inhibit”. For the same molecule, the “tail bleeding activity versus non-administrated group (FIG. 9)” value in series [2] is given as “did not show any significant bleeding activity”. Further, in series [3], the “concentration dependence of inhibition of ADP-induced platelet aggregation” value is reported as “gradient-dependent manner”. Moreover, the inhibition at 300 µM in series [3] (Homo sapiens, Platelet, 300 μM compound) is approximately 50%. In series [4] (Platelet, 20 μM compound, washed human platelets), the inhibition at 20 µM is approximately 50%.
In the case of `COC(=O)[C@H](c1ccccc1Cl)N1CCc2sccc2C1` [clopidogrel, reference compound], in series [2], the “tail bleeding activity versus non-administrated group (FIG. 8)” value is listed as “increased bleeding significantly” and the “tail bleeding activity versus non-administrated group (FIG. 9)” value is “increased bleeding significantly”.
